Reference: PubChem BioAssay (NCI)
“And” between values parts separate entries of the source, which are not always exact repeats. Equal values may be shown once.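 Step 1: Grow cells in 96-well plates. Step 2: Expose to compound for 48 hours at 5 concentrations. Step 3: Interpolate endpoints linearly; if unreached, use highest concentration. GI50 marks 50% less growth. TGI: concentration producing complete growth inhibition.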

test system: MDA-MB-468 breast; experiment: NCI-60 cell line screen, 48 h

SMILES	GI50	TGI
N#CCCN1C/C(=C/c2ccccc2)C(=O)/C(=C/c2ccccc2)C1	1.68 µM	3.78 µM
COc1ccc2[nH]c(C(=O)N3CCN(C(=O)OCc4ccc5c(Br)cc(Br)c(O)c5n4)CC3)cc2c1	0.209 µM	0.506 µM
Cn1cc(-c2ccc(-c3cn(C)c4ncccc34)[nH]2)c2cccnc21	1.79 µM	5.22 µM
O=C1N=C(c2c(-c3[nH]c(=O)c4ccc(Br)cc4c3O)c(O)c3ccccc3c2O)C(=O)c2cc(Br)ccc21	0.412 µM	1.49 µM
N#Cc1c(-c2ccc(Cl)cc2)cc(-c2cc(O)ccc2O)nc1N	0.769 µM	3.72 µM
CCCOc1cc2c(cc1O)CC[C@@H]1[C@@H]2CC[C@]2(C)[C@@H](O)CC[C@@H]12	2.8 µM	16.7 µM
Cc1ccncc1N1CCN(c2ccnc(Cl)c2)C1=O	> 100 µM	> 100 µM
Cc1ccc(S(=O)(=O)Oc2ccccc2-c2ccccc2)cc1	0.866 µM	4.22 µM
CS(C)(=O)=O	> 100000 µM	> 100000 µM
O=C(CC1(O)C(=O)N(Cc2ccccc2)c2ccc(Br)cc21)c1ccc(C(=O)NCC2CCC3(CC2)OOC2(CCCCC2)OO3)cc1 (stereo unspecified)	2.01 µM	6.72 µM
COC(=O)c1ccc([C@H]2c3[nH]c4ccccc4c3C[C@H](C(=O)OC)N2C(=O)CCl)cc1	0.472 µM	1.9 µM
COc1ccc(NC(=O)c2sc3nc(C)c(C(=O)/C=C/c4ccccc4)cc3c2N)cc1	0.92 µM	2.03 µM
O=C(O)c1cc2cc(OCc3ccccc3)ccc2[nH]1	> 100 µM	> 100 µM
O=C(CCl)Nc1ccc2c(Nc3cc(O)ccc3Cl)ncnc2c1	2.29 µM	7.68 µM
COc1ccc(C(=O)/C=C/c2ccc(OCc3ccc(Cl)cc3)cc2)cc1OC	40.6 µM	271 µM
c1cc2ccc3cc2cc1CNCCN1CCNCc2ccc4ccc(cc4c2)CNCCN(CCNC3)CCNCc2ccc3ccc(cc3c2)CNCC1	2.01 µM	4 µM
O=C(Nc1ccc(-n2ccc3c(NC(=O)c4ccccc4)nccc32)cc1)c1cccc(C(F)(F)F)c1	1.2 µM	7.3 µM
CC1=C2[C@H]3OC(=O)[C@@H](C)[C@@H]3CC[C@@]2(C)C=CC1=O	> 100 µM	> 100 µM
CC(=O)Nc1nc(C)c(-c2csc(Nc3ccccc3)n2)s1	1.74 µM	9.01 µM
COC(=O)N1c2ccc3c(nc(Cc4ccccc4)n3[C@H]3CCC[C@H](C(=O)O)C3)c2CC[C@@H]1C	3.82 µM	> 100 µM
COc1ccc(C(=O)C2C(C#N)C(C#N)C3C=Cc4ccccc4N32)cc1 (stereo unspecified)	2.31 µM	> 100 µM
C=CCCCC(=O)CCC(=O)OCC1O[C@@H](O[C@@H]2C(O)[C@@H](OC(C)=O)C(C)O[C@H]2O[C@H](CC=C)CCCCC)C(O)[C@@H](OC(=O)/C(C)=C/C)[C@@H]1OC(=O)/C=C/c1ccccc1 (stereo partly specified)	0.0321 µM	1.22 µM

SMILES	GI50	TGI
O=C(N/N=C\c1cc(Cl)ccc1O)c1ccncc1	1.83 µM	9.82 µM
O=c1c2sc3ccccc3c2nnn1-c1ccc(F)c(Cl)c1	12.8 µM	99.5 µM
NCCOc1ncccc1/C=C1\C2C=CC=CC2C2C=CC(F)=CC12 (stereo unspecified)	0.483 µM	2.01 µM
COc1ccc2nc(NC(=O)COc3cc(/C=C\c4cc(OC)c(OC)c(OC)c4)ccc3OC)sc2c1	2.29 µM	8.37 µM
COc1cnc2c(c1)C(=O)c1c-2n(CCCNCC2CC2)c(=O)c2cc(F)ccc12	0.316 µM	0.904 µM
Cn1ccnc1C(=O)/C=C/c1ccc(C(=O)Nc2ccccc2F)cc1	2.49 µM	8.3 µM
COc1ccc2oc(=O)cc(C3c4ccc([nH]4)C(c4cc(=O)oc5ccc(OC)cc45)c4ccc([nH]4)C(c4cc(=O)oc5ccc(OC)cc45)c4ccc([nH]4)C(c4cc(=O)oc5ccc(OC)cc45)c4ccc3[nH]4)c2c1 (stereo unspecified)	0.401 µM	1.91 µM
Cc1ccc2nc3ccccc3c(NCc3ccccc3)c2c1	1.52 µM	5.54 µM
CCC(=O)Oc1cc(/C=C/C(=O)O[C@H]2C[C@H]3CN4CCc5c([nH]c6cc(OC)ccc56)[C@@H]4C[C@@H]3[C@@H](C(=O)OC)[C@@H]2OC)ccc1OC	4.76 µM	33.3 µM
CO/N=C/C=C\C(=O)N/C=C/C[C@H]1/C=C/[C@H](O)/C=C\C=C\c2cccc(O)c2C(=O)O1	0.286 µM and 0.187 µM	29.9 µM and 17.5 µM
O=c1cc(N2CCOCC2)oc2c(-c3ccc4c(c3)OCCO4)csc12	0.629 µM	3.75 µM
O=c1c2c3c(sc2n2c(CCl)nnc2n1Cc1ccccc1)CCCC3	1.77 µM	3.72 µM
CCCCCC/C=C\CCCCCCCCCc1cc(O)cc(OC)c1O	0.296 µM	0.828 µM
Clc1ccc(CN2COc3c(ccc4cccnc34)C2)cc1Cl	0.543 µM	2.16 µM
CCCCCCCCCCCCCCNc1nc(C(=O)OCC)ncc1-c1ccc(C(F)(F)F)cc1	> 100 µM	> 100 µM
COc1cc(C(=O)/C=C/c2cc(-c3cc(OC)c(OC)c(OC)c3)n[nH]2)cc(OC)c1OC	1.15 µM	2.48 µM
CCCCCCCCNC(=O)c1ccc(Cn2c(CCCC)nc3c(N)nc4ccccc4c32)cc1	1.38 µM	3.06 µM
COc1ccc(C(=O)NCCNc2nccc(-c3c(-c4ccc(F)cc4)nc4sccn34)n2)cc1	4.74 µM	41 µM
CCCCCCC/C(=N\N=C(N)N)c1ccc(O)cc1	1.3 µM	2.6 µM
Nc1c(C(=O)Nc2ccccc2)sc2nc3c(cc12)C(O)CCC3 (stereo unspecified)	0.29 µM	> 100 µM
NC(=O)[C@@H](CCC(F)(F)F)N(Cc1ccc(-c2ncon2)cc1F)S(=O)(=O)c1ccc(Cl)cc1	7.26 µM	> 100 µM
